Experimental data taken from patent US12319655B2, “RAF kinase inhibitors and methods of use thereof” (Deciphera Pharmaceuticals, LLC, priority 2021, dated 2025).
pIC50: −log10 of the molar value.

Experiments:
[1] = target: B-Raf kinase (SEQ. ID NO: 2) (Homo sapiens (Human), UniProt P15056); assay: Biochemical Assay for B-Raf (2); conditions: Table J, biochemical assay (2); read-out: BRAF (2)
Experimental: Biochemical Assay for B-Raf (2)
Activity of B-Raf kinase (SEQ. ID NO: 2) was determined spectroscopically using a coupled pyruvate kinase/lactate dehydrogenase assay that continuously monitors the ATP hydrolysis-dependent oxidation of NADH (e.g., Schindler et al., Science, 2000, 289, 1938-1942). Assays were conducted in 384-well plates (25 μL final volume) using 2 nM B-Raf (Sigma), 1.5 units pyruvate kinase, 2.1 units lactate dehydrogenase, 1 mM phosphoenol pyruvate, 0.7 mM NADH, 50 nM MEK (SignalChem), and 1 mM ATP in assay buffer (100 mM Tris, pH 7.5, 15 mM MgCl2, 0.5 mM DTT, 0.1% octyl-glucoside, 0.002% (w/v) BSA, and 0.002% Triton X-100). Inhibition of B-Raf was measured by adding serial diluted test compound (final assay concentration of 1% DMSO). A decrease in absorption at 340 nm was monitored hourly for 4 h at 30° C. on a multi-mode microplate reader (BioTek). The reaction rate was calculated using the 2 to 3 h time frame. The reaction rate at each concentration of compound was converted to percent inhibition using controls (i.e., reaction with no test compound and reaction with a known inhibitor) and IC50 values were calculated by fitting a four-parameter sigmoidal curve to the data using Prism (GraphPad software).

[2] = target: B-Raf (V600E) (SEQ. ID NO: 4) kinase (Homo sapiens (Human), UniProt P15056, V600E); assay: Biochemical Assay for B-Raf (V600E) (2); conditions: Table J, BRAF V600E, biochemical assay (2); read-out: BRAF VE (2)
Experimental: Biochemical Assay for B-Raf (V600E) (2)
Activity of B-Raf (V600E) (SEQ. ID NO: 4) kinase was determined spectroscopically using a coupled pyruvate kinase/lactate dehydrogenase assay that continuously monitors the ATP hydrolysis-dependent oxidation of NADH (e.g., Schindler et al., Science, 2000, 289, 1938-1942). Assays were conducted in 384-well plates (25 μL final volume) using 0.5 nM B-Raf (deCode), 1.5 units pyruvate kinase, 2.1 units lactate dehydrogenase, 1 mM phosphoenol pyruvate, 0.7 mM NADH, 100 nM MEK (SignalChem), and 1 mM ATP in assay buffer (100 mM Tris, pH 7.5, 15 mM MgCl2, 0.5 mM DTT, 0.1% octyl-glucoside, 0.002% (w/v) BSA, and 0.002% Triton X-100). Inhibition of B-Raf (V600E) was measured by adding serial diluted test compound (final assay concentration of 1% DMSO). A decrease in absorption at 340 nm was monitored hourly for 4 h at 30° C. on a multi-mode microplate reader (BioTek). The reaction rate was calculated using the 3 to 4 h time frame. The reaction rate at each concentration of compound was converted to percent inhibition using controls (i.e., reaction with no test compound and reaction with a known inhibitor) and IC50 values were calculated by fitting a four-parameter sigmoidal curve to the data using Prism (GraphPad software).

[3] = target: A-Raf kinase (SEQ. ID No: 1) (Homo sapiens (Human), UniProt P10398, Y301D/Y302D); assay: Biochemical Assay for A-Raf (2); conditions: Table J, biochemical assay (2); read-out: ARAF (2)
Experimental: Biochemical Assay for A-Raf (2)
Activity of A-Raf kinase (SEQ. ID No: 1) was determined spectroscopically using a coupled pyruvate kinase/lactate dehydrogenase assay that continuously monitors the ATP hydrolysis-dependent oxidation of NADH (e.g., Schindler et al., Science, 2000, 289, 1938-1942). Assays were conducted in 384-well plates (25 μL final volume) using 20 nM A-Raf (Eurofins), 1.5 units pyruvate kinase, 2.1 units lactate dehydrogenase, 1 mM phosphoenol pyruvate, 0.7 mM NADH, 100 nM MEK (SignalChem), and 1 mM ATP in assay buffer (100 mM Tris, pH 7.5, 15 mM MgCl2, 0.5 mM DTT, 0.1% octyl-glucoside, 0.002% (w/v) BSA, and 0.002% Triton X-100). Inhibition of A-Raf was measured by adding serial diluted test compound (final assay concentration of 1% DMSO). A decrease in absorption at 340 nm was monitored hourly for 4 h at 30° C. on a multi-mode microplate reader (BioTek). The reaction rate was calculated using the 3 to 4 h time frame. The reaction rate at each concentration of compound was converted to percent inhibition using controls (i.e., reaction with no test compound and reaction with a known inhibitor) and IC50 values were calculated by fitting a four-parameter sigmoidal curve to the data using Prism (GraphPad software).

H2405 cells = assay: H2405 Cell Proliferation Assay (2); type: cell-based; conditions: Homo sapiens, NCI-H2405
Experimental: H2405 Cell Proliferation Assay (2)
H2405 cells (catalog #CRL-5994) are obtained from the American Type Culture Collect (ATTC, Manassas, VA). Briefly, cells were grown in RPMI 1640 supplemented with 5% characterized fetal bovine serum (Invitrogen, Carlsbad, CA) and 1% Penicillin/Streptomycin/L-Glutamine at 37° C., 5% CO2, and 95% humidity. Cells are expanded until reaching 70-95% confluency at which point they are sub-cultured or harvested for assay use. A serial dilution of test compound is dispensed into a 384-well black clear bottom plate in triplicate. Seven hundred fifty cells are added per well in 50 μL complete growth medium in the 384-well plate. Plates are incubated for 67-72 h at 37° C., 5% CO2, and 95% humidity. At the end of the incubation, 10 μL of a 440 μM solution of resazurin (Sigma, St. Louis, MO) in PBS is added to each well of the plate and plates are incubated for an additional 5-6 h at 37° C., 5% CO2, and 95% humidity. Plates are read on a Synergy2 or equivalent reader (Biotek, Winooski VT) using an excitation of 540 nm and an emission of 600 nm. Data is analyzed using Prism software (GraphPad, San Diego, CA) to calculate IC50 values

Chain of B-Raf (V600E) (SEQ. ID NO: 4) kinase (P15056 416-766 V600E): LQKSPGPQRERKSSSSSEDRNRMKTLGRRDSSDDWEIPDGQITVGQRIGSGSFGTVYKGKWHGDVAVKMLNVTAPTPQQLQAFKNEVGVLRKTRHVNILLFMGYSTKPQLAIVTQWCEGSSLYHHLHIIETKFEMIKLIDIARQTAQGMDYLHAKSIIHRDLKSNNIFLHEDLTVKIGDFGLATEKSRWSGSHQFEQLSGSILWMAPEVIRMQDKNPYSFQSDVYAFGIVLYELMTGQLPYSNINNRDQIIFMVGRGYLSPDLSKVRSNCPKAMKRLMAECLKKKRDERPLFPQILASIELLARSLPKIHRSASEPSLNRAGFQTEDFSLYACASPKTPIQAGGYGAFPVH
Chain of B-Raf kinase (SEQ. ID NO: 2) (P15056 416-766): as the sequence (P15056 416-766 V600E) above, with E185V counted along it
Chain of A-Raf kinase (SEQ. ID No: 1) (P10398 other isoform, or with tags, fused parts or gaps Y301D (already in the parent)/Y302D (already in the parent)): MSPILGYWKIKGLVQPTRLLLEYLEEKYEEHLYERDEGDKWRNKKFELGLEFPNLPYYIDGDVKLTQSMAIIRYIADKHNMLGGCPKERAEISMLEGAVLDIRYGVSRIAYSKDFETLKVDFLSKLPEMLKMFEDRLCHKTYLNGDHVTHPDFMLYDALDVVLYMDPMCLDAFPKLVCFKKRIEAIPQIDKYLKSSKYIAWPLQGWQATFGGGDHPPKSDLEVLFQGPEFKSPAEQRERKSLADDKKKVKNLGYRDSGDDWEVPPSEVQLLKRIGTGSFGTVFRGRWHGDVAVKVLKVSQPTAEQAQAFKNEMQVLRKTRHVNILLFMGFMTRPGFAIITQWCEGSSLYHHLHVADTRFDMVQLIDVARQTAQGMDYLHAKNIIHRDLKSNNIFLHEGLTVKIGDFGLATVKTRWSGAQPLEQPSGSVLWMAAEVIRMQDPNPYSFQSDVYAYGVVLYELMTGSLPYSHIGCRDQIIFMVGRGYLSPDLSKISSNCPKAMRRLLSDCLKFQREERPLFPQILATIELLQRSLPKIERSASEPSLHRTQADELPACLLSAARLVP

Row | pIC50 [1] | pIC50 [2] | pIC50 [3] | pIC50 (H2405 cells) | SMILES
1 | 6.30 to 7.00 | ≥ 7.00 | 5.00 to 6.00 | 6.30 to 7.00 | CNC(=O)c1cc(-c2cc(-c3cc(NC(=O)c4ccnc(C(C)(C)F)c4)ccc3Cl)ccn2)ccn1 [Example 485]
2 | 6.30 to 7.00 | ≥ 7.00 | 5.00 to 6.00 | 6.00 to 6.30 | Cc1ccc(NC(=O)c2ccnc(C(C)(C)F)c2)cc1-c1cnnc(-c2ccnc(C(N)=O)c2)c1 [Example 486]
3 | ≥ 7.00 | ≥ 7.00 | 6.30 to 7.00 | ≥ 7.00 | CNC(=O)c1cc(-c2cc(-c3cc(NC(=O)c4ccnc(C5(F)CC5)c4)ccc3C)ccn2)ccn1 [Example 487]
4 | ≥ 7.00 | ≥ 7.00 | 6.00 to 6.30 | 6.30 to 7.00 | Cc1ccc(NC(=O)c2ccnc(C(C)(C)F)c2)cc1-c1cc(-c2ccnc(C(N)=O)c2)ncn1 [Example 488]
5 | ≥ 7.00 | ≥ 7.00 | 6.30 to 7.00 | ≥ 7.00 | [2H]C([2H])([2H])NC(=O)c1cc(-c2cc(-c3cc(NC(=O)c4ccnc(C(C)(C)F)c4)ccc3C)ccn2)ccn1 [Example 489]
6 | 6.30 to 7.00 | ≥ 7.00 | 5.00 to 6.00 | 6.30 to 7.00 | Cc1ccc(NC(=O)c2ccnc(C(C)(C)F)c2)cc1-c1cc(-c2ccnc(C(N)=O)c2)ncc1F [Example 490]
7 | ≥ 7.00 | ≥ 7.00 | 5.00 to 6.00 | 6.30 to 7.00 | CC(C)(F)c1cc(C(=O)Nc2ccc(F)c(-c3ccnc(-c4ccnc(C(N)=O)c4)c3)c2)ccn1 [Example 491]
8 | ≥ 7.00 | ≥ 7.00 | 5.00 to 6.00 | 6.30 to 7.00 | CNC(=O)c1cc(-c2cc(-c3cc(NC(=O)c4cnnc(C(C)(F)F)c4)ccc3C)ccn2)ccn1 [Example 492]
9 | 6.30 to 7.00 | ≥ 7.00 | 5.00 to 6.00 | 6.30 to 7.00 | [2H]C([2H])([2H])NC(=O)c1cc(-c2cc(-c3cc(NC(=O)c4ccnc(C(C)(C)F)c4)ccc3C)cc(C)n2)ccn1 [Example 493]
10 | 6.30 to 7.00 | ≥ 7.00 | 5.00 to 6.00 | 5.00 to 6.00 | CNC(=O)c1cc(-c2cc(-c3cc(NC(=O)c4ccnc(C(C)(C)F)n4)ccc3C)ccn2)ccn1 [Example 494]
11 | ≥ 7.00 | ≥ 7.00 | 6.00 to 6.30 | 6.30 to 7.00 | CNC(=O)c1cc(-c2cc(-c3cc(NC(=O)c4cnnc(C(C)(C)F)c4)ccc3C)ccn2)ccn1 [Example 495]
12 | 6.30 to 7.00 | ≥ 7.00 | 5.00 to 6.00 | 6.30 to 7.00 | CNC(=O)c1cc(-c2cc(-c3cc(NC(=O)c4ccnc(C5(F)CC5)c4)ccc3C)cc(C)n2)ccn1 [Example 496]
13 | 6.30 to 7.00 | ≥ 7.00 | 5.00 to 6.00 | 6.30 to 7.00 | CNC(=O)c1cc(-c2cc(-c3cc(NC(=O)c4ccnc(C(C)(C)F)c4)c(F)cc3C)ccn2)ccn1 [Example 497]
14 | 6.30 to 7.00 | ≥ 7.00 | 5.00 to 6.00 | 6.30 to 7.00 | [2H]C([2H])([2H])NC(=O)c1cc(-c2cc(-c3cc(NC(=O)c4ccnc(C5(F)CC5)c4)ccc3C)cc(C)n2)ccn1 [Example 498]
15 | 6.30 to 7.00 | ≥ 7.00 | 5.00 to 6.00 | 6.30 to 7.00 | CNC(=O)c1cc(-c2cc(-c3cc(NC(=O)c4ccnc(C(C)(C)F)c4)ncc3C)ccn2)ccn1 [Example 499]
16 | ≥ 7.00 | ≥ 7.00 | 5.00 to 6.00 | 5.00 to 6.00 | Cc1ccc(NC(=O)c2cn(C)nc2C(F)(F)F)cc1-c1cncc(-c2ccnc(NC(=O)C3CC3)c2)c1 [Example 500]
17 | ≥ 7.00 | 6.30 to 7.00 | 5.00 to 6.00 | 6.30 to 7.00 | Cc1ccc(NC(=O)c2ccc(C(F)(F)F)cc2)cc1-c1ccnc(-c2ccnc(NC(=O)C3CC3)c2)c1 [Example 501]
18 | ≥ 7.00 | ≥ 7.00 | 6.30 to 7.00 | ≥ 7.00 | Cc1ccc(NC(=O)c2cccc(C(F)(F)F)c2)cc1-c1ccnc(-c2ccnc(NC(=O)C3CC3)c2)c1 [Example 502]
19 | ≥ 7.00 | ≥ 7.00 | 6.30 to 7.00 | 6.30 to 7.00 | Cc1ccc(NC(=O)c2cc(C(F)(F)F)ccc2F)cc1-c1ccnc(-c2ccnc(NC(=O)C3CC3)c2)c1 [Example 503]
